# Values of other authors as cited in paper PMC13064256, “Integrative preclinical strategy for pharmacokinetic profiling and candidate selection of 3-hydroxypropanamidines: a promising antimalarial class” (Malaria Journal, 2026).
# Parameters: method as in PMID 31898492
smiles,measurement,value
CCCCN(CCCC)CCC(O)c1cc2c(Cl)cc(Cl)cc2c2cc(C(F)(F)F)ccc12 (stereo not shown) [halofantrine],Clint in HLMs,26.9 µL/min/mg
